Target: SOS1:KRAS (G12C) interaction (Homo sapiens (Human), UniProt Q07889)
Test: SOS1 KRas(G12C) FRET Assay
Type: binding
Conditions: 0.5 nM His10-SOS1 (res. 564-1049), 2.5 nM GST-KRAS G12C (res. 1-169), 2 hrs at RT
Outline: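 GST-KRAS G12C (res. 1-169) at 2.5 nM and His10-SOS1 (res. 564-1049) at 0.5 nM, final, in PBS with 0.1% BSA, 5 mM MgCl2, 100 mM KF, 5 mM DTT and 0.5% DMSO. After 2 h at RT, FRET read at 665/615 nm and normalized to DMSO and no-SOS1 controls. IC50 by non-linear regression.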

Sequence of SOS1:KRAS (G12C) interaction (Q07889 564-1049, stated change not applied): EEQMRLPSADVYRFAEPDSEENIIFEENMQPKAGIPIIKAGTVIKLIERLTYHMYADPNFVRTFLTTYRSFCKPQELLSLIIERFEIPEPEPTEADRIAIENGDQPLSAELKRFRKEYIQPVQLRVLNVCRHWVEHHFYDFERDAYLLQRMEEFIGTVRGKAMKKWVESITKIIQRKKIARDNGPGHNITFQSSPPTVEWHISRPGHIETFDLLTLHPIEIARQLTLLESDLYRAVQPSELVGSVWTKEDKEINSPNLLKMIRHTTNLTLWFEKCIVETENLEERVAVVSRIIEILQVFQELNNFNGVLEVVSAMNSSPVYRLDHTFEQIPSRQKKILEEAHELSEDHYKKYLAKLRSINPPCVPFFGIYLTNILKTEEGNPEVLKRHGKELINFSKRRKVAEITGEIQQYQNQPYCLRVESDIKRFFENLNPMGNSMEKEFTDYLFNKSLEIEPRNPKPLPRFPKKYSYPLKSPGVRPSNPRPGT

SMILES | IC50 [nM]
CC(NC(=O)c1cn(C2(C(F)F)CC2)c(=O)cc1N[C@H]1[C@@H]2CN(C)C[C@@H]21)c1cccc(C(F)(F)c2cocn2)c1F (stereo partly drawn) [Example 176, N-(1-(3-(difluoro(oxazol-4-yl)methyl)-2-fluorophenyl)ethyl)-1-(1-(difluoromethyl)cyclopropyl)-4-(((1R,5S,6s)-3-methyl-3-azabicyclo[3.1.0]hexan-6-yl)amino)-6-oxo-1,6-dihydropyridine-3-carboxamide] | 109
Cc1c([C@@H](C)NC(=O)c2cn(C3CCOCC3)c(=O)cc2NC[C@H]2CC[C@@H](N(C)C)CC2)cccc1C(F)(F)F [Example 302, 4-((((1s,4S)-4-(dimethylamino)cyclohexyl)methyl)amino)-N-((R)-1-(2-methyl-3-(trifluoromethyl)phenyl)ethyl)-6-oxo-1-(tetrahydro-2H-pyran-4-yl)-1,6-dihydropyridine-3-carboxamide] | 31.5
C[C@@H](NC(=O)c1cn(C2(C(F)F)CC2)c(=O)cc1N[C@@H]1CCN(C)C2(CC2)C1)c1cccc(C(F)F)c1F (single isomer, unassigned) [Example 312] | 35.6
C[C@@H](NC(=O)c1cn(C2(C(F)F)CC2)c(=O)cc1N[C@H]1CN2CCC1(F)CC2)c1cccc(C(F)F)c1F [Example 186, N-((R)-1-(3-(difluoromethyl)-2-fluorophenyl)ethyl)-1-(1-(difluoromethyl)cyclopropyl)-4-(((S)-4-fluoroquinuclidin-3-yl)amino)-6-oxo-1,6-dihydropyridine-3-carboxamide] | 27.5
C[C@@H](NC(=O)c1cn(C23CC(C2)C3)c(=O)cc1N[C@H]1[C@@H]2CN(C)C[C@@H]21)c1cccc(S(F)(F)(F)(F)F)c1F [Example 162, 1-(bicyclo[1.1.1]pentan-1-yl)-N-((R)-1-(2-fluoro-3-(pentafluoro-16-sulfaneyl)phenyl)ethyl)-4-(((1R,5S,6s)-3-methyl-3-azabicyclo[3.1.0]hexan-6-yl)amino)-6-oxo-1,6-dihydropyridine-3-carboxamide] | 27.8
C[C@@H](NC(=O)c1cn([C@@H]2CCC2(F)F)c(=O)cc1N[C@@H]1[C@@H]2CC[C@H]1CN(C)C2)c1cccc(C(F)F)c1F [Example 212, 1-((R)-2,2-difluorocyclobutyl)-N-((R)-1-(3-(difluoromethyl)-2-fluorophenyl)ethyl)-4-(((1R,5S,8s)-3-methyl-3-azabicyclo[3.2.1]octan-8-yl)amino)-6-oxo-1,6-dihydropyridine-3-carboxamide] | 38.2
C[C@@H](NC(=O)c1cn(C2(C(C)(F)F)CC2)c(=O)cc1NC1CCN(C)CC1)c1cccc(C(F)F)c1F [Example 230, (R)-1-(1-(1,1-difluoroethyl)cyclopropyl)-N-(1-(3-(difluoromethyl)-2-fluorophenyl)ethyl)-4-((1-methylpiperidin-4-yl)amino)-6-oxo-1,6-dihydropyridine-3-carboxamide] | 21.9
C[C@@H](NC(=O)c1cn(C2(C)CC(F)(F)C2)c(=O)cc1N[C@H]1[C@@H]2CN(C)C[C@@H]21)c1cccc(C(F)F)c1F [Example 224, 1-(3,3-difluoro-1-methylcyclobutyl)-N-((R)-1-(3-(difluoromethyl)-2-fluorophenyl)ethyl)-4-(((1R,5S,6s)-3-methyl-3-azabicyclo[3.1.0]hexan-6-yl)amino)-6-oxo-1,6-dihydropyridine-3-carboxamide] | 46.8
C[C@@H](NC(=O)c1cn(C2(C(F)F)CC2)c(=O)cc1N[C@@H]1[C@@H]2CC[C@H]1CN(C)C2)c1cccc(C(F)F)c1F (single isomer, unassigned) [Example 246] | 16.1
CN1C[C@@H]2[C@H](C1)[C@H]2Nc1cc(=O)n(C2(C(F)F)CC2)cc1C(=O)N[C@H](c1cccc(C(F)F)c1F)C(F)(F)F (single isomer, unassigned) [Example 276] | > 10000
C[C@@H]1C[C@H]1n1cc(C(=O)N[C@H](C)c2cccc(C(F)F)c2F)c(N[C@H]2[C@@H]3CN(C)C[C@@H]32)cc1=O (single isomer, unassigned) [Example 272] | 29.1
COCCN1CC(CNc2cc(=O)n(C3CCOCC3)cc2C(=O)N[C@H](C)c2cccc(C(F)(F)F)c2C)C1 [Example 295, (R)-4-(((1-(2-methoxyethyl)azetidin-3-yl)methyl)amino)-N-(1-(2-methyl-3-(trifluoromethyl)phenyl)ethyl)-6-oxo-1-(tetrahydro-2H-pyran-4-yl)-1,6-dihydropyridine-3-carboxamide] | 53.6
C[C@@H](NC(=O)c1cn(C2(C(F)(F)F)CCCC2)c(=O)cc1NC1CCN(C)CC1)c1cccc(C(F)F)c1F [Example 223, (R)-N-(1-(3-(difluoromethyl)-2-fluorophenyl)ethyl)-4-((1-methylpiperidin-4-yl)amino)-6-oxo-1-(1-(trifluoromethyl)cyclopentyl)-1,6-dihydropyridine-3-carboxamide] | 14.1
C[C@@H](NC(=O)c1cn(C2(C(F)F)CC2)c(=O)cc1N[C@H]1[C@@H]2C[C@H]1CN(C)C2)c1cccc(C(F)F)c1F (single isomer, unassigned) [Example 251] | 34.1
C[C@@H](NC(=O)c1cn(C2(C(F)F)CCC2)c(=O)cc1N[C@@H]1[C@@H]2C[C@H]1CN(C)C2)c1cccc(C(F)F)c1F (single isomer, unassigned) [Example 252] | 17
C[C@@H](NC(=O)c1cn([C@H]2C[C@@H](C3CC3)C2)c(=O)cc1N[C@H]1[C@@H]2CN(C)C[C@@H]21)c1cccc(C(F)F)c1F (single isomer, unassigned) [Example 248] | 24.1
C[C@@H](NC(=O)c1cn(C2(C3CCC3)CC2)c(=O)cc1NC1CCN(C)CC1)c1cccc(C(F)F)c1F [Example 241, (R)-1-(1-cyclobutylcyclopropyl)-N-(1-(3-(difluoromethyl)-2-fluorophenyl)ethyl)-4-((1-methylpiperidin-4-yl)amino)-6-oxo-1,6-dihydropyridine-3-carboxamide] | 29
CCN1C[C@@H]2[C@H](C1)[C@H]2Nc1cc(=O)n(C2(C(F)F)CC2)cc1C(=O)N[C@H](C)c1cccc(C(F)F)c1F [Example 58, N-((R)-1-(3-(difluoromethyl)-2-fluorophenyl)ethyl)-1-(1-(difluoromethyl)cyclopropyl)-4-(((1R,5S,6s)-3-ethyl-3-azabicyclo[3.1.0]hexan-6-yl)amino)-6-oxo-1,6-dihydropyridine-3-carboxamide] | 30.8
C[C@@H](NC(=O)c1cn(C2(C)CC(F)(F)C2)c(=O)cc1NC1CCN(C)CC1)c1cccc(C(F)F)c1F [Example 222, (R)-1-(3,3-difluoro-1-methylcyclobutyl)-N-(1-(3-(difluoromethyl)-2-fluorophenyl)ethyl)-4-((1-methylpiperidin-4-yl)amino)-6-oxo-1,6-dihydropyridine-3-carboxamide] | 27.6
C[C@@H](NC(=O)c1cn(C23COC(C(F)F)(C2)C3)c(=O)cc1NC1[C@H]2CN(C)C[C@@H]12)c1cccc(C(F)F)c1F (stereo partly drawn) [Example 263, N-((R)-1-(3-(difluoromethyl)-2-fluorophenyl)ethyl)-1-(1-(difluoromethyl)-2-oxabicyclo[2.1.1]hexan-4-yl)-4-(((1R,5S,6s)-3-methyl-3-azabicyclo[3.1.0]hexan-6-yl)amino)-6-oxo-1,6-dihydropyridine-3-carboxamide] | 14.9
